IC50 data for 69 compounds are collected here from PubChem BioAssay AID1850 (Southern Research Specialized Biocontainment Screening …, 2009).

One may read the IC50 as the concentration needed to halve the response being measured.

The assay has as its system Salmonella Typhi PhoP-promoter GFP reporter, fluorescence, 4 h. Put plainly: PhoP regulon inhibitors, Salmonella typhi PhoP promoter GFP reporter, confirmatory (AID 1850).
For the compound `CCCCOc1ccc(C(=O)OC2CC(C)N(C)CC2C)cc1` (centres undefined), the IC50 was 86.3 µM. For `O=C(NC1CCCC1)c1ccc(Br)s1` the value was 20.3 µM; for `C[C@H]1c2cccc(O)c2C(O)=C2C(=O)[C@]3(O)C(O)=C(C(N)=O)C(=O)[C@@H](N(C)C)[C@@H]3[C@@H](O)[C@@H]21`, 3.98 µM; for `COc1ccc(Nc2c3c(nc4ccccc24)CCC3)cc1`, 74.6 µM. In the case of `CCOc1cc(CNC(C)(C)CO)cc(Br)c1OCc1ccc(Cl)cc1Cl`, the IC50 is 43.6 µM. For `CCn1nnc(NC(=O)c2ccc([N+](=O)[O-])o2)n1` the value was 52.3 µM. For `CO[C@H]1/C=C/O[C@@]2(C)Oc3c(C)c(O)c4c(O)c(c(C=NN5CCN(C)CC5)c(O)c4c3C2=O)NC(=O)/C(C)=C\C=C\[C@H](C)[C@H](O)[C@@H](C)[C@@H](O)[C@@H](C)[C@H](OC(C)=O)[C@@H]1C` the value was 9.7 µM. For `Cc1cc(N2CCC(C)CC2)nc2cccc(O)c12` the value was 77.1 µM. Turning to `C#CCOCCOCCOCCNc1nc(N2CCN(C(=O)CCCCCCCCCCNC(=O)[C@@H](CCSC)n3cc(CCO)nn3)CC2)nc(N2CCN(C(=O)CCCCCCCCCCNC(=O)[C@H]([C@@H](C)CC)n3cc(CCCCCN)nn3)CC2)n1`, the IC50 is 119 µM.

In the case of `O=C(CCc1ccccc1)NNC(=O)c1ccccn1`, the IC50 is 74 µM. For `CN1CCN(C2=Cc3ccccc3Sc3cc(F)c(Cl)cc32)CC1` the value was 32.8 µM; for `Cc1cc(C)c2nc(C)cc(N/N=C/c3ccc(O)cc3)c2c1`, 36.4 µM. For `NC(=O)SCC(=O)Nc1ccc(Cl)cc1` the value was 13.6 µM; for `CCn1cc(C(=O)O)c(=O)c2cc(F)c(N3CCN(C(=S)NC(=O)c4ccc(Br)cc4)CC3)cc21`, 12.7 µM. For `Cc1cc(C)c2c(N)c3ccccc3nc2n1` the value was 77.3 µM; for `CN(C)CCCN1c2ccccc2Sc2ccccc21`, 114 µM; for `NC(N)=N/N=C/c1ccc(OCc2ccc(Cl)cc2)cc1`, 35.6 µM. For the compound `O=[N+]([O-])c1cc([N+](=O)[O-])c2cccnc2c1Oc1ccccc1O`, the IC50 is 81.3 µM. For `O=C(N/N=C/c1ccccn1)c1cccs1` the value was 71.6 µM.

In the case of `O=C(N/N=C/c1ccc([N+](=O)[O-])o1)c1ccc(O)cc1`, the IC50 is 19.9 µM.

For the compound `C#CCOCCOCCOCCNc1nc(N2CCN(C(=O)CCCCCCCCCCNC(=O)Cn3cc(CCCCCN)nn3)CC2)nc(N2CCN(C(=O)CCCCCCCCCCNC(=O)[C@@H]([C@H](C)O)n3cc(C)nn3)CC2)n1`, the IC50 is 114 µM.

On to `NC1=NC[C@H](CC2CCCCC2)N1CCc1cc(C(F)(F)F)cc(C(F)(F)F)c1`, for which the IC50 was 35.6 µM. On to `c1ccc(-c2nc3ccccc3[nH]2)cc1`, for which the IC50 is 48 µM. Consider `COc1ccc(OCc2n(CC(=O)OC3CC(C)CCC3C(C)C)c3ccccc3[n+]2C)cc1` (centres undefined), for which the IC50 is 48.9 µM. For `Cc1[nH]c2ccc(OC(F)(F)F)cc2c1CCNCc1ccc(Cl)cc1` the value was 22.1 µM. `Oc1c(Br)cc(Br)cc1C=NCc1ccc(F)cc1`: the IC50 was 57.4 µM.

As to `Cc1ccc(Cn2c(=N)n(CC(O)COc3ccccc3)c3ccccc32)cc1` (centres undefined), the IC50 is 52.3 µM. For `CCCCCc1ccc(OCCCC[n+]2ccccc2)c(CCCCC)c1` the value was 35.3 µM; for `O=C(N/N=C/c1ccccn1)c1ccc(Br)o1`, 60.7 µM. For `O=C(CNC(=O)c1ccccc1)N/N=C/c1ccc([N+](=O)[O-])s1` the value was 19.7 µM; for `OCCNCc1cc(Br)ccc1OCc1ccc(Cl)cc1`, 86.8 µM. For `O=C(CCC(=O)Nc1ccc(Cl)cc1Cl)N/N=C/c1ccc([N+](=O)[O-])o1` the value was 23.5 µM; for `CN1CCc2c(sc(NC(=O)c3ccc([N+](=O)[O-])o3)c2C(N)=O)C1`, 18.7 µM. With `Nc1nc(Nc2ccc(Cl)cc2)nc2ccccc12`, the IC50 is 15.3 µM. For `O=C(N/N=C/c1ccc([N+](=O)[O-])s1)c1ccccc1Br` the value was 74 µM; for `O=C(CN1C2=NCCCN2c2ccccc21)c1ccc(Br)s1`, 147 µM; for `OCCNc1nc(Nc2ccc(Br)cc2)nc2ccccc12`, 6.86 µM.

As for `O=C(Nc1cccc(C2=NCCN2)c1)Nc1cccc(C2=NCCN2)c1`, the IC50 was 71.9 µM. With `CCCCn1c(NS(=O)(=O)c2ccccc2)c(C(=O)OCC)c2nc3ccccc3nc21`, the IC50 was 35 µM. For `C[C@H]1O[C@@H](n2cc(F)c(=O)[nH]c2=O)[C@H](O)[C@@H]1O` the value was 32.2 µM; for `CCCOc1ccc(C(=O)NNC(=S)NC(=O)CC)cc1`, 47.7 µM; for `O=C(/C=C/c1ccc(F)cc1)NC(=S)NNC(=O)c1cnccn1`, 28.6 µM. For `CC1(C)N=C(N)NC(Nc2cccc(Br)c2)=N1` the value was 34.7 µM.

Turning to `CCCC(=O)NC(c1ccco1)c1cc([N+](=O)[O-])c2cccnc2c1O` (centres undefined), the IC50 was 38.9 µM. For `CN1CC=C(/C=C/c2ccc(-c3ccccc3)cc2)CC1` the value was 60.2 µM; for `CC1=C([N+](=O)[O-])C(c2cccc(Br)c2)C2=C(N1)c1ccccc1C2=O` (centres undefined), 18.2 µM; for `CCCCC(CC)CN=C(N)NC(N)=NCCCCCCN=C(N)NC(N)=NCC(CC)CCCC` (centres undefined), 2.73 µM. Regarding `c1ccc2c(NCCc3c[nH]c4ccccc34)c3ccccc3nc2c1`, the IC50 was 36.3 µM. For `COc1c(N2CCN(C(=S)Nc3ccc(F)cc3)C(C)C2)c(F)cc2c(=O)c(C(=O)O)cn(C3CC3)c12` (centres undefined) the value was 1.72 µM. As to `O=[N+]([O-])c1ccc(O)c2ncccc12`, the IC50 was 0.96 µM. For `Cc1cc(/C=C\c2ccc3cc(N(C)C)ccc3[n+]2C)c(C)n1-c1ccccc1` the value was 27.8 µM; for `C(=N\Nc1ccccn1)/c1cccnc1`, 33.9 µM; for `COc1ccc(Nc2ccnc3ccccc23)cc1`, 52.2 µM. For `CCN(CCNCC(O)COc1ccccc1C(C)C)c1cccc(C)c1` (centres undefined) the value was 32.5 µM.

With `OC(CNCC1CCCO1)Cn1c2ccc(Cl)cc2c2cc(Cl)ccc21` (centres undefined), the IC50 was 35.2 µM. On to `CCN1/C(=C/c2cc[n+](C)cc2)C=Cc2cc(C)ccc21`, for which the IC50 was 36.9 µM. For `CC(NCC(O)COc1ccc2ccccc2c1)c1ccccc1` (centres undefined) the value was 79.8 µM; for `Oc1ccc(C[C@@H]2CNCCN2CCCCC2CCCCC2)cc1`, 46.8 µM; for `Clc1ccc(/C=C/c2ncc[nH]2)c(Cl)c1`, 38.1 µM. For `Cc1cc(O)c2c(c1)C(=O)C13C(=C2O)C(=O)[C@H]2[C@@H](O)[C@@H]1[C@H]1[C@H](O)[C@@H]3C(=O)C3=C(O)c4c(O)cc(C)cc4C(=O)C312` (some centres undefined) the value was 5.14 µM. For `Nc1[nH]ncc1-c1ccccc1` the value was 69.6 µM; for `CCC(/C=C1\Sc2ccc(OC)cc2N1CCO)=C\c1sc2ccc(OC)cc2[n+]1CCO`, 31.8 µM. On to `O=C(/C=C/c1ccccc1)c1cc(Br)ccc(=O)c1O`, for which the IC50 was 24.5 µM. On to `CCN(CC(=O)NC(C)(C)C)C(=O)COc1c(Cl)cc(Cl)c2ccc(C)nc12`, for which the IC50 was 41.4 µM.

In the case of `Cc1cccc2c1Sc1ccc(Cl)cc1CC2N1CCNCC1` (centres undefined), the IC50 is 78.5 µM. For `O=c1[nH][nH]c(-c2ccccc2O)c1C(C[N+](=O)[O-])c1ccc(Br)cc1` (centres undefined) the value was 91.5 µM; for `C[C@H]1COc2c(C3(N)CC3)c(F)cc3c(=O)c(C(=O)O)cn1c23`, < 0.23 µM. On to `Oc1cccc2ccc(Nc3ccccn3)nc12`, for which the IC50 was 9.36 µM.

As to `Cc1nonc1C(=O)N/N=C/c1ccc(O)cc1O`, the IC50 is 33.4 µM.
